The text below walks through data of patent US20140378460A1, “COMPOSITIONS AND METHODS FOR TREATING NEURODEGENERATIVE DISEASE” (COGNITION THERAPEUTICS, INC., priority 2011, published 2014).

Entries after “also recorded” stand apart in the source; their conditions may differ.

The target of data set [1] is Sigma-1 receptors (Homo sapiens, UniProt Q99720). Description: Sigma-1 competitive radioligand binding, [3H](+)pentazocine, Jurkat cell membranes.
Procedure: Reactions were terminated by rapid filtration through Whatman GF/C filters using a Brandel 12R cell harvester followed by two washes with ice-cold buffer. Radioactivity on the dried filter discs was measured using a liquid scintillation analyzer (Tri-Carb 2900TR; PerkinElmer Life and Analytical Sciences). The displacement curves were plotted and the Ki values of the test ligands for the receptor subtypes were determined using GraphPad Prism (GraphPad Software Inc., San Diego, Calif.). The percentage specific binding was determined by dividing the difference between total bound (disintegrations per minute) and nonspecific bound (disintegrations per minute) by the total bound (disintegrations per minute).
Data set [2] in a line: Genotoxicity (AMES, micronucleus, bacterial cytotox). The following applies: 10 μM.
For data set [3], the system named is Na+ channel (site 2) (antagonist radioligand). Description: Receptor panel, inhibition of binding.
Data set [4] has as its system Abeta oligomer-induced synapse loss in primary hippocampal neurons. Briefly: Synapse loss assay. The format is cell-based, rat. How it is done: In this assay, Abeta oligomers were brought in contact with mature primary neurons in culture and their binding was determined by immunohistochemistry (anti-Abeta antibody) and quantified by image processing. The amount of Abeta in neuronal dendrites is assessed by counting the number of labeled puncta on the neuritis. […] This labeling is associated with synapses, co-localizing with the post-synaptic scaffold protein PSD-95 (Lacor et al., '04). […] The number of synapses can also be quantified in this assay by immunofluorochemistry. Similar procedures for binding assays can be found in the literature. […] Review.
Primary hippocampal neuronal culture was established as in the membrane trafficking assay above. […] Pretreatment with compounds to be tested lasted for 1 hr and addition of Abeta oligomers or no oligomer (vehicle alone) in a final concentration of 70 ul was followed by incubation for an additional 23 hrs.
The plates were then washed 3× with PBS for 5 min each. The plates were blocked at RT for 1 hr in 5% goat serum and 0.5% Triton X-100 in PBS. […] Primary antibodies were incubated overnight at 4° C. The plates were then washed 3× with PBS for 5 min each. […] Secondary antibodies were incubated at RT for 1 hr. The plates were washed once with PBS. DAPI (4′,6-diamidino-2-phenylindole, Invitrogen) was then applied at 0.03 ug/ul and incubated at RT for 5 min, then washed with PBS.

Data set [5] has as its target hERG (Homo sapiens, UniProt Q12809). Briefly: hERG inhibition. The note with it: 100 nM.
In data set [6] the target is PGP (Homo sapiens, UniProt P08183). Briefly: PGP activity. The format is in vitro ADME.
The test system of data set [7] is neurons and glia in culture. Description: In vitro neuronal and glial toxicity. In kind it is cell-based. The following applies: acute or chronic dosing, up to 50 μM, three days. An excerpt: The sigma-2 receptor antagonists eliminated or reduced Abeta oligomer-induced changes in membrane trafficking.
In data set [8] the test system is neuronal cultures. Description: Neuronal nuclear intensity / morphology. The note with it: 24 hours.
The subject of data set [9] is caspase-3 in SKOV-3 human ovarian cancer cells. Briefly: Caspase-3 activity in tumor cells. The format is cell-based.
Data set [10] relates to Abeta oligomer-induced memory deficits in wt C57BL/6 mice. Description: Contextual fear conditioning, intrahippocampal Abeta oligomers. In kind it is in vivo, mouse. The following applies: before oligomers. The protocol:
Several pharmaceutical companies use this same model in their discovery efforts. Contextual fear conditioning is an accepted model of associative memory formation which correlates to human cognitive function and specifically the creation of new memories (Delgado '06). Abeta oligomers are injected into the hippocampus of wild-type animals immediately before conditioning training and memory is assessed via freezing behavior after 24 hours. See, for example, FIGS. 4 and 8. Details are provided in Example 9. […] This model system was chosen because intrahippocampal administration of oligomers allows rapid comparative assessment of compound activity and off-target toxicity. The results are shown graphically in FIG. 4.
Compound II was tested in an animal model of a memory-dependent behavioral task known as fear conditioning. The study protocol was designed based on published protocols (See e.g. Puzzo D, Privitera L, Leznik E, Fà M, Staniszewski A, Palmeri A, Arancio O. Picomolar amyloid-beta positively modulates synaptic plasticity and memory in hippocampus. J. Neurosci. 2008 Dec. 31; 28(53):14537-45.). The formation of contextual memories is dependent upon the integrity of medial temporal lobe structures such as the hippocampus. […]

Data set [11] relates to sigma 2 (agonist radioligand). Description: Receptor panel, inhibition of binding. The following applies: Compound II 10 uM.
In data set [12] the test system is caspase-3 in neuronal cultures. Briefly: Caspase-3 activity in neurons. In kind it is cell-based.
Data set [13] deals with mu (MOP) (h) (agonist radioligand) (Homo sapiens, UniProt P35372). Briefly: Receptor panel, inhibition of binding.
mu (MOP) (h) (agonist radioligand), sequence (P35372 whole entry): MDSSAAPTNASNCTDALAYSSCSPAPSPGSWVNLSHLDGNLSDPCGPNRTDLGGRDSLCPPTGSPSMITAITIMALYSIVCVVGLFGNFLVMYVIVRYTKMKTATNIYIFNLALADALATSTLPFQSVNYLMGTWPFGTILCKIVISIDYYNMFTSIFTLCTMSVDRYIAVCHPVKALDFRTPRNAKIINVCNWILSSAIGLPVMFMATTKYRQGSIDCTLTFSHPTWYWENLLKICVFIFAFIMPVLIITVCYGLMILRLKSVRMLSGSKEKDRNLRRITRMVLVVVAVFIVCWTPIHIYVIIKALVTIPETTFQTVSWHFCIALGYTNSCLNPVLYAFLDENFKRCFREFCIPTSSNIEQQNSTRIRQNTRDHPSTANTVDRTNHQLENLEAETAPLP

Sigma-1 receptors, sequence (Q99720 whole entry): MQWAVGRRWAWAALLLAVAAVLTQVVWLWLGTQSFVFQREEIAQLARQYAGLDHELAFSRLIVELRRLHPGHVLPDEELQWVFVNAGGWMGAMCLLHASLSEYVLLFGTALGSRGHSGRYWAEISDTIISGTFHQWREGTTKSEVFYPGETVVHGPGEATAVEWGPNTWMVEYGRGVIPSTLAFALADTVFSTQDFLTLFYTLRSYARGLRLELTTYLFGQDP
hERG, sequence (Q12809 whole entry): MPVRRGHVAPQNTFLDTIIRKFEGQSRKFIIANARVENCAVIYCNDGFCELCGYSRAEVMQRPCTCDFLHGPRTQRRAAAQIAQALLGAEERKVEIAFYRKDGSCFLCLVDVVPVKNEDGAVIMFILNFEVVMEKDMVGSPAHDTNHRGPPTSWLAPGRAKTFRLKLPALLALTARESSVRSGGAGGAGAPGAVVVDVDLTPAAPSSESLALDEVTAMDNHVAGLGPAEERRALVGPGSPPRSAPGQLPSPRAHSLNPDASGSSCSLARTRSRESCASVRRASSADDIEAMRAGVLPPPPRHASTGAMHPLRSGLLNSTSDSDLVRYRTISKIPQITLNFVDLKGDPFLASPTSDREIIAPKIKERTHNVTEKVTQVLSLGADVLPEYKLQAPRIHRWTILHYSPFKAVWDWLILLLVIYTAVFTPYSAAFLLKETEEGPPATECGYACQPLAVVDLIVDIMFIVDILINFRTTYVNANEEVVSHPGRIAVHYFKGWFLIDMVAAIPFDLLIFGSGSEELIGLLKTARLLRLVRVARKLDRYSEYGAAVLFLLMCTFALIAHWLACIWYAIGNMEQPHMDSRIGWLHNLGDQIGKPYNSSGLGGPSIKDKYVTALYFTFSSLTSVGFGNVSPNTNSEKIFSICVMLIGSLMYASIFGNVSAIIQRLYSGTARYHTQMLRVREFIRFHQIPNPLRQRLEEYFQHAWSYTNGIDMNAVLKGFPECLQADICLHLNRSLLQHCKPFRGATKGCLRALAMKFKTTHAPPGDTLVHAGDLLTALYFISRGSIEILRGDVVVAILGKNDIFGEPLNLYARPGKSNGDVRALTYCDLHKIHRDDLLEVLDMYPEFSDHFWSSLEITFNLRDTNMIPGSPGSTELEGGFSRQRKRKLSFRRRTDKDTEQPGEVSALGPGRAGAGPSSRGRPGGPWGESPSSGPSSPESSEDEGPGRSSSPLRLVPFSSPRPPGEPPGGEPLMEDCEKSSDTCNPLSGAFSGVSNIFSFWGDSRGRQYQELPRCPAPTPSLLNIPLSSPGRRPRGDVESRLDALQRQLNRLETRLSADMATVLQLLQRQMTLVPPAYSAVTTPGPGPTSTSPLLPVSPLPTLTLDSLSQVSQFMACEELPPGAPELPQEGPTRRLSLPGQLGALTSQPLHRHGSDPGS
PGP, sequence (P08183 whole entry): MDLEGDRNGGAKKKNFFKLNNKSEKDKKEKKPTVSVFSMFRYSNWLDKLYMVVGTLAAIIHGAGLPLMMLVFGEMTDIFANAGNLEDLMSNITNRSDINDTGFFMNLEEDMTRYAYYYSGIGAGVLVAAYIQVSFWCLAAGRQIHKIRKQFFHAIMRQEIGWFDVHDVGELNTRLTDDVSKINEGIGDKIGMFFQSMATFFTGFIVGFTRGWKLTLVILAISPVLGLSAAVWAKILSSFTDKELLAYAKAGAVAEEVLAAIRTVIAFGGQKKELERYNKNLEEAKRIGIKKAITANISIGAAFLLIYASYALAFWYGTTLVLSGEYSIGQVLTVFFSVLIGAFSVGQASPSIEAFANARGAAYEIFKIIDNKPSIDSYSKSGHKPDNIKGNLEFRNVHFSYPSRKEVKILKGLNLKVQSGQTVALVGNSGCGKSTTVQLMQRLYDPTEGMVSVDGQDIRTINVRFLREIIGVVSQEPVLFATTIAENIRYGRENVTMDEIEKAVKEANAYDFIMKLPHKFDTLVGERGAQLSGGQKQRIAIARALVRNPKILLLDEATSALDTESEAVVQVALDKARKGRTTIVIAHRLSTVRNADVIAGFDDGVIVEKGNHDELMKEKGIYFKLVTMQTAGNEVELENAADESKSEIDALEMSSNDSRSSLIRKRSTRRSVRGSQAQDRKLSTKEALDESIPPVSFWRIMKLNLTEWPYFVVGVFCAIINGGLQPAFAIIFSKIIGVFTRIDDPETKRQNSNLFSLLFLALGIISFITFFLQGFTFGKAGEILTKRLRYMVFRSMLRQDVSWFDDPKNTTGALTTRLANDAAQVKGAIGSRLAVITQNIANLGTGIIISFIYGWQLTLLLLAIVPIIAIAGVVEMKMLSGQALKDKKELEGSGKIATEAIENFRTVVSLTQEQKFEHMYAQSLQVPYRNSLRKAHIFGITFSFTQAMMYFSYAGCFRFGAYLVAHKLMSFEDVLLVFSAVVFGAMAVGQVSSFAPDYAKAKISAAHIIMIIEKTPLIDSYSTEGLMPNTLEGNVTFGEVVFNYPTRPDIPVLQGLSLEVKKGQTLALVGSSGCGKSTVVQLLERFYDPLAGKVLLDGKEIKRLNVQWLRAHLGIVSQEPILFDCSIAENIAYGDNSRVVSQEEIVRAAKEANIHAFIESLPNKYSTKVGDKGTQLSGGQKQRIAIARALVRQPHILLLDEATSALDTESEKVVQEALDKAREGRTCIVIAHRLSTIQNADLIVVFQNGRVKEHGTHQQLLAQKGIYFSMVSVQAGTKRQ

The term Ki denotes a measure of affinity in units of concentration, obtained from inhibition or displacement. A high value points to a looser hold on the target. By IC50 is commonly meant the midpoint of a concentration-inhibition curve. A higher IC50 goes with weaker potency. The inhibition is the change of the read-out against control, counted positive when it falls. As for `COc1cc(CCC(C)NCc2ccc(C(F)(F)F)cc2)ccc1O` (centres unmarked) [Compound II], the Ki amounted to 500 nM in data set [1] (Ki at sigma-1 receptors, displacement of [3H]-(+)-pentazocine, human Jurkat cell membranes); 500 nM in data set [1] (S1 binding Ki (nM), Table 11B); 500 nM in [1] (Sigma 1 Binding Ki (nM), Table 2, own compounds); 500 nM in data set [1] (Sigma Affinity (S1) nM, Table 11E, own compounds). In data set [2], the “Genotoxicity” value was “no genotoxicity”. The “% Inhibition of Control” value in [3] (Compound II 10 uM) is on record as 54%; in data set [11], 89%. The “Other Targets: Na + ch2” value in data set [3] (Table 11E) was “Na + ch2 (2 uM)”. Moreover, the “Effect on Abeta oligomer-induced synapse loss” value in data set [4] is listed as “completely eliminated this synaptic regression”. For the same compound, the “Abeta oligomer-induced synapse loss eliminated” value in data set [4] (5 μM) is recorded as 100%. The compound also registered a Block synapse loss in data set [4] (Table 11B) of 100%. In addition, the “Abeta oligomer-induced synapse loss eliminated / recovery” value in [4] (b801) is recorded as 100%. Besides, the hERG inhibition in [5] was 24%. Moreover, the IC50 in [6] was > 30000 nM. Further, in data set [7], the “Neuronal or glial toxicity” value is “did not induce neuronal or glial toxicity”. Further, the “Nuclear morphology / nuclear intensity in neurons” value in data set [8] is “did not decrease nuclear intensity”. Besides, the “Block of SV-119-induced caspase-3 activation in tumor cells” value in [9] is reported as “do not block caspase-3 activation”. Further, the “Caspase-3 activity induced in tumor cells” value in data set [9] is “did not induce caspase-3 activity”. In addition, in data set [10], the “Effect on Abeta oligomer-induced memory deficits” value is on record as “eliminated memory deficits; also recorded: completely blocked oligomer-mediated memory deficits at the 2 pmol dose”. For the same compound, the “Block of SV-119-induced caspase-3 activation in neurons” value in [12] is given as “blocked caspase-3 activation”. Also, in [12], the “Caspase-3 activity induced in neurons” value is on record as “did not induce caspase-3 activity”. Moreover, the “Other Targets: Mu opioid” value in [13] (Table 11E) is given as “opioid (4 uM),”. Further, the inhibition at 10 µM in data set [13] (read-out: % Inhibition of Control) came to 60%.
